Three molecules from patent EP3154958B1, “PHOSPHATIDYLINOSITOL 3-KINASE INHIBITORS” (Gilead Sciences, Inc., priority 2014, dated 2015) can be followed below.

For orientation: IC50 means the concentration needed to halve the response being measured.

Common to all, as to type: biochemical
One test has as its target T1, PI3Kδ (Homo sapiens, UniProt O00329).
T1 construct: made in house
Briefly: TR-FRET enzymatic activity assay, PI3Kδ. The settings on record: recombinant heterodimeric PI3Kδ 25-50 pM, 2× Km ATP, 30 minutes at 25°C. A digest of the protocol: (§1)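 Each PI3K isoform is tested in an enzymatic format. Signal comes from time-resolved fluorescence energy transfer.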

The next test has as its target T2, PI3Kγ (Homo sapiens, UniProt P48736).
T2 construct: made in house
Briefly: TR-FRET enzymatic activity assay, PI3Kγ. Conditions: recombinant heterodimeric PI3Kγ 2 nM, 2× Km ATP, 30 minutes at 25°C. The method, boiled down: as §1
A general note: Time-resolved FRET reads energy transfer from a long-lived donor to a nearby acceptor.

The next test has as its target T3, PI3Kβ (Homo sapiens, UniProt P42338).
T3 construct: made in house
Briefly: TR-FRET enzymatic activity assay, PI3Kβ. The settings on record: recombinant heterodimeric PI3Kβ 25-50 pM, 2× Km ATP, 30 minutes at 25°C. A digest of the protocol: as §1

Some results are limits rather than exact numbers.

T3 sequence (P42338 whole entry): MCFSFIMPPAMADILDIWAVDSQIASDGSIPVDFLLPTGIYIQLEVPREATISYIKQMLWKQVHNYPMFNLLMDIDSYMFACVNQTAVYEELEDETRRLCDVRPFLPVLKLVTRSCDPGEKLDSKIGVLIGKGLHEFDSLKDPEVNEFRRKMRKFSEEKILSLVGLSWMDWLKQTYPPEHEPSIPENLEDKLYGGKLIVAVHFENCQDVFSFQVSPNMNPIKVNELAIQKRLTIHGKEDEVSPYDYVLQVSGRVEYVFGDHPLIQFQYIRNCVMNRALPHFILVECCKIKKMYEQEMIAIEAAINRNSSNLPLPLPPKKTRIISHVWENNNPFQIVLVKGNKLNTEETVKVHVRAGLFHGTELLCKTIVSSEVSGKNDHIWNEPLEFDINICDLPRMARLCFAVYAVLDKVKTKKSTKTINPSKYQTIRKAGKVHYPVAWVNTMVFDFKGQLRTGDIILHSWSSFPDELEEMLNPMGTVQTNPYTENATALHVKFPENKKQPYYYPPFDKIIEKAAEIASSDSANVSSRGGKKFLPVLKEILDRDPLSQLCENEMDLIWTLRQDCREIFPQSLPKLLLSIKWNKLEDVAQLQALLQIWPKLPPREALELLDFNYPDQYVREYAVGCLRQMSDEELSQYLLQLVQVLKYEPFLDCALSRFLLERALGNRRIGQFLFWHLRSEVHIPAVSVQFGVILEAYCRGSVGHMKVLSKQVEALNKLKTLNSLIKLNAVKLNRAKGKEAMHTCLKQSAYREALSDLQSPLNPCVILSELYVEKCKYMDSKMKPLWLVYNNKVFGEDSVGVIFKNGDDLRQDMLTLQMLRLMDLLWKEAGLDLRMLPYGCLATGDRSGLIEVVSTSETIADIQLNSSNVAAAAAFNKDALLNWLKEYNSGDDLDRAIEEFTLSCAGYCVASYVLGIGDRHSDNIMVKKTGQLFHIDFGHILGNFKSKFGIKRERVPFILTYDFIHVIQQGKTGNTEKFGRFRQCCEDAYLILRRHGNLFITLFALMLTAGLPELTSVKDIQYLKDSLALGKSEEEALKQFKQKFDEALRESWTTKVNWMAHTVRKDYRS
T3 sequence (P27986 whole entry partner): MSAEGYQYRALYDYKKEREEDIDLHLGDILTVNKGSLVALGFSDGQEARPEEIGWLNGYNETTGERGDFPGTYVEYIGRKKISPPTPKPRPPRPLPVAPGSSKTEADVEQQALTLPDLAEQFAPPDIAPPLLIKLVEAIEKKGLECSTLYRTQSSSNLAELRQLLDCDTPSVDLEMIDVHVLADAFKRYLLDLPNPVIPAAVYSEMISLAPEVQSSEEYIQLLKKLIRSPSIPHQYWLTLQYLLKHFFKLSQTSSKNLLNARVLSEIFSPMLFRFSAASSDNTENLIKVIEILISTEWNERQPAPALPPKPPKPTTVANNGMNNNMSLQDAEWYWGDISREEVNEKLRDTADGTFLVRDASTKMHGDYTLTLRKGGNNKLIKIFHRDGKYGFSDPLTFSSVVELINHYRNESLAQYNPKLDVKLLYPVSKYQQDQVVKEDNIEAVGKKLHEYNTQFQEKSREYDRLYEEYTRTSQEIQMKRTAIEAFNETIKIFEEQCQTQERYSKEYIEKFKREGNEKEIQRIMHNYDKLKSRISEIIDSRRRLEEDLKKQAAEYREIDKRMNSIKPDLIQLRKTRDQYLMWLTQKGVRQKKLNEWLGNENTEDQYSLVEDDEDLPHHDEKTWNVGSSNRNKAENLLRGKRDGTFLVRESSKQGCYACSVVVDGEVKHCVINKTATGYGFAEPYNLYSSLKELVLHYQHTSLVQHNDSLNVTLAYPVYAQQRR
T1 sequence (O00329 whole entry): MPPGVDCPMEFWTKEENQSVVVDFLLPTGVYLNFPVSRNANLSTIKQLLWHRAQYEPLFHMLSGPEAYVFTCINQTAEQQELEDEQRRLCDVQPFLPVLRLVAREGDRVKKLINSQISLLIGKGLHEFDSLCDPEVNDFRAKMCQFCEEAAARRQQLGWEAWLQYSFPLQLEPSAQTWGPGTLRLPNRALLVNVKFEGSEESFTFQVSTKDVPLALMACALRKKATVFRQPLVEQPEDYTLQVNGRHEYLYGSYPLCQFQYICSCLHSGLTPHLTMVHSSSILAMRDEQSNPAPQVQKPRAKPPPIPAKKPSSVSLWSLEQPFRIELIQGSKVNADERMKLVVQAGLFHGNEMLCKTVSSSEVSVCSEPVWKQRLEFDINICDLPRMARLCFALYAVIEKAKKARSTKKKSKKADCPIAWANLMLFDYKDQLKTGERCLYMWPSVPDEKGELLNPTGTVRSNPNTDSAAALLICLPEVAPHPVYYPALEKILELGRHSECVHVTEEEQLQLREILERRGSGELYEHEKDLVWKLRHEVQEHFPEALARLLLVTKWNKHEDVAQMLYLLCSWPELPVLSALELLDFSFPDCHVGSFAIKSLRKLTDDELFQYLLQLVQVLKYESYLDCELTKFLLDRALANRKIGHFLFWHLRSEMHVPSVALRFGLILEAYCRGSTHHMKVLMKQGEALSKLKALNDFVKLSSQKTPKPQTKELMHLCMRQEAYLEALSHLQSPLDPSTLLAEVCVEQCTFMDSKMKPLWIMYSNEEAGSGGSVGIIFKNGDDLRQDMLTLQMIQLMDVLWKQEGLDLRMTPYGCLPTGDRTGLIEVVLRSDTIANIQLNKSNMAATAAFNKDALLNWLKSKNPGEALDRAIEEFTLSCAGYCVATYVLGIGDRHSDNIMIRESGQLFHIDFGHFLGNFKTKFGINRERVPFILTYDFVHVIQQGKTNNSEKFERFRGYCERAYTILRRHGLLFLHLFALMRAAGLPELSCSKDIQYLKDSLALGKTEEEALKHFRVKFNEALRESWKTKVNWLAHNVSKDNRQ
T1 sequence (P27986 whole entry partner): as the sequence (P27986 whole entry partner) above
T2 sequence (P48736 whole entry): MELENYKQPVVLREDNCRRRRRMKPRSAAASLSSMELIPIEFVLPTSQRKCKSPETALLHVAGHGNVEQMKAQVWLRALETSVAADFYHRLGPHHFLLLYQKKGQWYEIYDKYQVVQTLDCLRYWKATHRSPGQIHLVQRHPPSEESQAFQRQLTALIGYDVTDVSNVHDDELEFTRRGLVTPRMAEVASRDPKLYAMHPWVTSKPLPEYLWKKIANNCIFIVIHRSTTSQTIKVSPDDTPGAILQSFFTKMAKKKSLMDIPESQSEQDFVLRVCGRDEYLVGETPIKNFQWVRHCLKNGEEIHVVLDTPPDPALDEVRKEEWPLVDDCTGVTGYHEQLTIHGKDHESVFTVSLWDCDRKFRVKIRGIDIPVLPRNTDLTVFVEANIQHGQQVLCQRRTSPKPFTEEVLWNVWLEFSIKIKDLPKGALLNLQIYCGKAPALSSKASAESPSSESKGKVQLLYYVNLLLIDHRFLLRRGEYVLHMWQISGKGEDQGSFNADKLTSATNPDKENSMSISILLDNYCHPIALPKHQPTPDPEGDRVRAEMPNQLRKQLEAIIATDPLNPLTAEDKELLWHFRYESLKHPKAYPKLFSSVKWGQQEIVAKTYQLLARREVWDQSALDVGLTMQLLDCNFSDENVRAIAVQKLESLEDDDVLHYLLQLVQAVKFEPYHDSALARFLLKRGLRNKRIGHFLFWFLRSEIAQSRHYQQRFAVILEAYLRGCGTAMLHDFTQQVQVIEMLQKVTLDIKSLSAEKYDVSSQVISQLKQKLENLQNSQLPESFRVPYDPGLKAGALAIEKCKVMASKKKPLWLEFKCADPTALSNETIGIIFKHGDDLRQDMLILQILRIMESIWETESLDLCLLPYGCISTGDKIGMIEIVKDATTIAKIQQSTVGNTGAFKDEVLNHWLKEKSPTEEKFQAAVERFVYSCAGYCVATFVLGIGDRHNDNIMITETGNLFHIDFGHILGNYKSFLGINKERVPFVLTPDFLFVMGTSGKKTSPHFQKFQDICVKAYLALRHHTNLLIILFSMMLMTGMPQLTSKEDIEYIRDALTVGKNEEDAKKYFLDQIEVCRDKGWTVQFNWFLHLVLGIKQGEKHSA
T2 sequence (Q8WYR1 whole entry partner): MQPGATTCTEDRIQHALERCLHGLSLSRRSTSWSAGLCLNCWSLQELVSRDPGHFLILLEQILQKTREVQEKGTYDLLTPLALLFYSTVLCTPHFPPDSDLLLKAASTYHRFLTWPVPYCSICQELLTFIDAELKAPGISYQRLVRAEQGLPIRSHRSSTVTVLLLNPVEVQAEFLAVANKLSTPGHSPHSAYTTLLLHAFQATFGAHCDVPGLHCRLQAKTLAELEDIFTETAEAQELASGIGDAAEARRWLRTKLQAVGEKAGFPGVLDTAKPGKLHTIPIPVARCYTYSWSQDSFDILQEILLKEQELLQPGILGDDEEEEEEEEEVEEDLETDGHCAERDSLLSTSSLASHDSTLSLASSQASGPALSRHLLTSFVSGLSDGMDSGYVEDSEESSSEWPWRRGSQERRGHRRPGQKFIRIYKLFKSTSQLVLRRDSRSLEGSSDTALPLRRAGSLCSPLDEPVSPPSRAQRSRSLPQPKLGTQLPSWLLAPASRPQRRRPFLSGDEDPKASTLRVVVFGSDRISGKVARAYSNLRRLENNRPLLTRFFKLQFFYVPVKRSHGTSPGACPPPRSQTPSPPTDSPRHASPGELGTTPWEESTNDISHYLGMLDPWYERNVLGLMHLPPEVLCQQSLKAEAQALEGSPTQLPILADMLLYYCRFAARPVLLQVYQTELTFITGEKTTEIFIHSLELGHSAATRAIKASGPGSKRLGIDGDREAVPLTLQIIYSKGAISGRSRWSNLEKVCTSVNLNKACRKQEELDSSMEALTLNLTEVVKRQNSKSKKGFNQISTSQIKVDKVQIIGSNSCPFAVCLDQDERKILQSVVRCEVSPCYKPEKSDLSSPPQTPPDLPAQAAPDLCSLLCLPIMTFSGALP

Consider `C[C@H](Nc1nc(N)nc(N)c1C#N)c1nc2cccc(Cl)c2c(=O)n1C1C[C@H]2CC[C@@H](C1)N2C` (stereo partly drawn) [Compound 4, 2,4-diamino-6-(((1S)-1-(5-chloro-3-((1R,5S)-8-methyl-8-azabicyclo[3.2.1]octan-3-yl)-4-oxo-3,4-dihydroquinazolin-2-yl)ethyl)amino)pyrimidine-5-carbonitrile], for which the figures for the IC50 on PI3Kδ, on PI3Kγ and on PI3Kβ were 82 nM, greater than 10 µM and 290 nM, respectively.

As for `N#Cc1c(N)nc(N)nc1N[C@H](c1nc2c(F)ccc(F)c2c(=O)n1N1CCNCC1)C1CC1` [Compound 127, (S)-2,4-diamino-6-((cyclopropyl(5,8-difluoro-4-oxo-3-(piperazin-1-yl)-3,4-dihydroquinazolin-2-yl)methyl)amino)pyrimidine-5-carbonitrile], the IC50 is 13 nM at PI3Kδ, greater than 10 µM on PI3Kγ and 28 nM on PI3Kβ.

Regarding `C[C@H](Nc1ncnc2scnc12)c1nc2cccc(Cl)c2c(=O)n1N1CCNCC1` [Compound 70, (S)-5-chloro-3-(piperazin-1-yl)-2-(1-(thiazolo[5,4-d]pyrimidin-7-ylamino)ethyl)quinazolin-4(3H)-one], the IC50 at PI3Kδ was 3 nM; on PI3Kγ it was greater than 10 µM; on PI3Kβ it was 14 nM.
